Experiment: physchem
[1] = LogPA (logP of the stated pure compound or, in a mixture, of the main isomer, 1-substituted 3-aryl-1H-pyrazole)

chromatographic logP (pH 2.3, LogP (pH 2.3))	chromatographic logP (pH 2.7, logP (pH 2.7))	SMILES	also measured
1.26		COc1cc(F)ccc1-c1c(-c2ccncc2)cnn1C1CCCCO1 (centres unmarked) [[X-14], 4-[5-(4-fluoro-2-methoxyphenyl)-1-(tetrahydro-2H-pyran-2-yl)-1H-pyrazol-4-yl]pyridine]	
		CC(=O)OCCn1cc(-c2ccncc2)c(-c2ccc(F)cc2)n1 [Compound 145]	chromatographic logP [1]: 1.05
		CC(C)Cn1cc(-c2ccnc(N(C(=O)C(C)(C)C(=O)C(C)C)C(C)C)n2)c(-c2ccc(F)cc2)n1 [Compound 186]	chromatographic logP (LogPA): 3.02
		FC(F)(F)c1cccc(-c2nn(C3CCCCO3)cc2-c2ccncc2)c1 (centres unmarked) [Compound 42]	chromatographic logP [1]: 1.84
3.93	3.93	N#Cc1cccc(Cn2cc(Br)c(-c3ccc(F)cc3)n2)c1 [[VI-12], 3-{[4-Bromo-3-(4-fluorophenyl)-1H-pyrazol-1-yl]methyl}benzonitrile]	
3.48	3.48	Cn1nc(-c2ccc(F)cc2O)c(Br)c1OC(F)F [[VI-c-1], 2-[4-Bromo-5-(difluoromethoxy)-1-methyl-1H-pyrazol-3-yl]-5-fluorophenol]	
		Fc1ccc(-c2nn(Cc3ccc(OC(F)F)cc3)cc2-c2ccncc2)cc1 [Compound 109]	chromatographic logP [1]: 1.88
		CC(C)Cn1cc(-c2ccnc(NCc3ccccc3)n2)c(-c2ccc(F)cc2)n1 [Compound 182]	chromatographic logP (LogPA): 3.15
		CC(C)Nc1nccc(-c2cn(CCCl)nc2-c2ccc(F)cc2)n1 [Compound 359]	chromatographic logP (LogPA): 2.05
		COCCOCC(=O)Nc1cc(-c2cn(C)nc2-c2ccc(F)cc2)ccn1 [Compound 345]	chromatographic logP (LogPA): 1.96
		O=C(Nc1ccccc1)c1cc(-c2cn(C3CCCCO3)nc2-c2ccc(F)cc2)ccn1 (centres unmarked) [Compound 94]	chromatographic logP [1]: 4.34
3.89	3.89	CCCn1cc(Br)c(-c2ccc(F)cc2)n1 [[VI-14], 4-Bromo-3-(4-fluorophenyl)-1-propyl-1H-pyrazole]	
1.64		c1ccc(COc2ccccc2-c2c(-c3ccncc3)cnn2C2CCCCO2)cc1 (centres unmarked) [[X-22], 4-{5-[2-(benzyloxy)phenyl]-1-(tetrahydro-2H-pyran-2-yl)-1H-pyrazol-4-yl}pyridine]	
		N#Cc1cc(-c2c(-c3ccncc3)cnn2C2CCCCO2)ccc1F (centres unmarked) [Compound 61, 2-fluoro-5-[4-(pyridin-4-yl)-1-(tetrahydro-2H-pyran-2-yl)-1H-pyrazol-5-yl]benzonitrile]	chromatographic logP [1]: 1.45
		CNC(=O)c1cc(-c2cn(C3CCCCO3)nc2-c2cccc(Cl)c2)ccn1 (centres unmarked) [Compound 83]	chromatographic logP [1]: 3.15
		c1ccc(Oc2cccc(-c3c(-c4ccncc4)cnn3C3CCCCO3)c2)cc1 (centres unmarked) [Compound 67, 4-[5-(3-phenoxyphenyl)-1-(tetrahydro-2H-pyran-2-yl)-1H-pyrazol-4-yl]pyridine]	chromatographic logP [1]: 1.88
		Cc1cc(-c2c(-c3ccncc3)cnn2C2CCCCO2)ccc1F (centres unmarked) [Compound 55]	chromatographic logP [1]: 1.47
	0.6	Cc1[nH]nc(-c2ccc(F)cc2)c1-c1ccncc1 [[IX-b-1], 4-[3-(4-Fluorophenyl)-5-methyl-1H-pyrazol-4-yl]pyridine]	
3.01	3.01	Fc1ccc(-c2nn(CC3OCCO3)cc2Br)cc1 [[VI-17], 4-Bromo-1-(1,3-dioxolan-2-ylmethyl)-3-(4-fluorophenyl)-1H-pyrazole]	

chromatographic logP (pH 2.3, LogP (pH 2.3))	chromatographic logP (pH 2.7, logP (pH 2.7))	SMILES	also measured
		COc1ccc(-c2nn(C3CCCCO3)cc2-c2ccnc(C)n2)cc1 (centres unmarked) [Compound 77]	chromatographic logP [1]: 2.27
4.39	4.39	CCC(C)n1cc(Br)c(-c2ccc(F)cc2)n1 (centres unmarked) [[VI-19], 4-Bromo-1-sec-butyl-3-(4-fluorophenyl)-1H-pyrazole]	
		CC(C)n1cc(-c2ncnc3c2CCCN3)c(-c2ccc(F)cc2)n1 [Compound 311]	chromatographic logP (LogPA): 1.29
		C#CCn1ccc2c(-c3cn(C4CCCCO4)nc3-c3ccc(F)cc3)ccnc21 (centres unmarked) [Compound 49]	chromatographic logP [1]: 3.47
3.84	3.84	CC1(C)OB(c2cn(CC(F)F)nc2-c2ccc(F)cc2)OC1(C)C [[V-4], 1-(2,2-difluoroethyl)-3-(4-fluorophenyl)-4-(4,4,5,5-tetramethyl-1,3,2-dioxaborolan-2-yl)-1H-pyrazole]	
		COCC(=O)Nc1cc(-c2c(-c3cc(F)c(C#N)cc3F)nn(C)c2OC(F)F)ccn1 [Compound 199]	chromatographic logP (LogPA): 2.59
		Fc1ccc(-c2c(-c3ccncc3)cnn2C2CCCCO2)c(F)c1 (centres unmarked) [Compound 56, 4-[5-(2,4-difluorophenyl)-1-(tetrahydro-2H-pyran-2-yl)-1H-pyrazol-4-yl]pyridine]	chromatographic logP [1]: 1.35
	2.29	Fc1ccc(-c2n[nH]cc2Br)cc1 [[VII-I], 4-Bromo-3-(4-fluorophenyl)-1H-pyrazole]	
1.78		FC(F)(F)Oc1ccc(-c2c(-c3ccncc3)cnn2C2CCCCO2)cc1 (centres unmarked) [[X-19], 4-{1-(tetrahydro-2H-pyran-2-yl)-5-[4-(trifluoromethoxy)phenyl]-1H-pyrazol-4-yl}pyridine]	
	0	CCOC(=O)Nc1cc(B2OC(C)(C)C(C)(C)O2)ccn1 [[XV-a-6], Ethyl [4-(4,4,5,5-tetramethyl-1,3,2-dioxaborolan-2-yl)pyridin-2-yl]carbamate]	
		COc1ccc(-c2nn(C3CCCCO3)cc2-c2ccnc(C)c2)cc1 (centres unmarked) [Compound 73]	chromatographic logP [1]: 1.33
0.97	0.97	CCn1cc(-c2ccnc(N)c2)c(-c2ccc(F)cc2)n1 [[III-3], 4-[1-Ethyl-3-(4-fluorophenyl)-1H-pyrazol-4-yl]pyridin-2-amine]	
		CCC(C)n1ncc(-c2ccncc2)c1-c1c(F)cccc1F (centres unmarked) [Compound 38]	chromatographic logP [1]: 1.9
1.61		COc1ccc(-c2c(-c3ccncc3)cnn2C2CCCCO2)c2ccccc12 (centres unmarked) [[X-2], 4-[5-(4-methoxy-1-naphthyl)-1-(tetrahydro-2H-pyran-2-yl)-1H-pyrazol-4-yl]pyridine]	
		CCC(=O)Nc1cc(-c2c(-c3ccc(F)cc3)nn(C(C)C)c2C(F)(F)F)ccn1 [Compound 304]	chromatographic logP (LogPA): 4.07
		CC(C)Cn1cc(-c2ccnc(NC(C)C3CC3)n2)c(-c2ccc(F)cc2)n1 (centres unmarked) [Compound 372]	chromatographic logP (LogPA): 2.73
		CCn1cc(-c2ccnc(NC(=O)c3ccsc3C(F)F)c2)c(-c2ccc(F)cc2)n1 [Compound 334]	chromatographic logP (LogPA): 3.27
		Cn1cc(-c2ccnc(NC(=O)CCc3ccccc3)c2)c(-c2ccc(F)cc2)n1 [Compound 343]	chromatographic logP (LogPA): 2.54
3.9	3.9	Fc1ccc(-c2nn(CC3CC3)cc2Br)cc1 [[VI-18], 4-Bromo-1-(cyclopropylmethyl)-3-(4-fluorophenyl)-1H-pyrazole]	

chromatographic logP (pH 2.3, LogP (pH 2.3))	chromatographic logP (pH 2.7, logP (pH 2.7))	SMILES	also measured
3.08	3.08	CC(CC#N)n1cc(Br)c(-c2ccc(F)cc2)n1 (centres unmarked) [[VI-21], 3-[4-Bromo-3-(4-fluorophenyl)-1H-pyrazol-1-yl]butanonitrile]	
		Cc1csc2c(-c3cn(CC(C)C)nc3-c3ccc(F)cc3)ncnc12 [Compound 288]	chromatographic logP (LogPA): 3.85
		N#Cc1[nH]nc(-c2ccc(F)cc2)c1-c1ccncc1 [Compound 175]	chromatographic logP (LogPA): 1.08
4.61	4.61	CC(C)n1nc(-c2ccc(F)cc2)c(Br)c1OC(F)F [[VI-b-2], 4-Bromo-5-(difluoromethoxy)-3-(4-fluorophenyl)-1-isopropyl-1H-pyrazole]	
	2.09	CC(C)C(=O)Nc1cc(Br)ccn1 [[IV-c-1], N-(4-bromopyridin-2-yl)-2-methylpropanamide]	
		FCC(CF)n1cc(-c2ccncc2)c(-c2ccc(F)cc2)n1 [Compound 177]	chromatographic logP (LogPA): 1.16
	2.28	CSc1nccc(-c2c[nH]nc2-c2ccc(F)cc2)n1 [[XXXIX-1], 4-[3-(4-Fluorophenyl)-1H-pyrazol-4-yl]-2-(methylsulphanyl)pyrimidine]	
3.47	3.47	CC1(C)OB(c2cn(C3CC3)nc2-c2ccc(F)cc2)OC1(C)C [[V-7], 1-Cyclopropyl-3-(4-fluorophenyl)-4-(4,4,5,5-tetramethyl-1,3,2-dioxaborolan-2-yl)-1H-pyrazole]	
		CC(C)C(=O)Nc1cc(-c2cn(Cc3cccc(C#N)c3)nc2-c2ccc(F)cc2)ccn1 [Compound 308]	chromatographic logP (LogPA): 2.69
		COc1ccc(-c2c(-c3ccncc3)cnn2C2CCCCO2)c2ccccc12 (centres unmarked) [Compound 45]	chromatographic logP [1]: 1.69
3.52	3.52	Cn1nc(-c2ccc(F)cc2)c(Br)c1OC(F)F [[VI-b-1], 4-Bromo-5-(difluoromethoxy)-3-(4-fluorophenyl)-1-methyl-1H-pyrazole]	
2.69	2.69	N#CCCn1cc(Br)c(-c2ccc(F)cc2)n1 [[VI-23], 3-[4-bromo-3-(4-fluorophenyl)-1H-pyrazol-1-yl]propanonitrile]	
		O=C(Nc1ccccc1)c1cc(-c2cn(C3CCCCO3)nc2-c2cccc(Cl)c2)ccn1 (centres unmarked) [Compound 96]	chromatographic logP [1]: 4.89
		CC(C)Cn1cc(-c2ccnc(S(C)(=O)=O)n2)c(-c2ccc(F)cc2)n1 [Compound 287]	chromatographic logP (LogPA): 2.9
	0.04	CC(C)C(=O)Nc1cc(B2OC(C)(C)C(C)(C)O2)ccn1 [[XV-a-4], 2-Methyl-N-[4-(4,4,5,5-tetramethyl-1,3,2-dioxaborolan-2-yl)pyridin-2-yl]propanamide]	
	0	CC1(C)OB(c2ccnc(NC(=O)C3CC3)c2)OC1(C)C [[XV-a-7], N-[4-(4,4,5,5-Tetramethyl-1,3,2-dioxaborolan-2-yl)pyridin-2-yl]cyclopropanecarboxamide]	
		CC(C)n1cc(-c2ccnc(NC(c3ccccc3)C(F)(F)F)c2)c(-c2ccc(F)cc2)n1 (centres unmarked) [Compound 325]	chromatographic logP (LogPA): 3.66
		Fc1ccc(-c2nn(C3CCCCO3)cc2-c2cc(N3CCOCC3)ncn2)cc1 (centres unmarked) [Compound 52]	chromatographic logP [1]: 1.49

SMILES	chromatographic logP (pH 2.3, LogP (pH 2.3))	chromatographic logP (pH 2.7, logP (pH 2.7))	also measured
N#Cc1cccc(-c2c(-c3ccncc3)cnn2C2CCCCO2)c1 (centres unmarked) [[X-11], 3-[4-(pyridin-4-yl)-1-(tetrahydro-2H-pyran-2-yl)-1H-pyrazol-5-yl]benzonitrile]	1.23		
Clc1ccc(-c2c(-c3ccncc3)cnn2C2CCCCO2)cc1 (centres unmarked) [[X-18], 4-[5-(4-chlorophenyl)-1-(tetrahydro-2H-pyran-2-yl)-1H-pyrazol-4-yl]pyridine]	1.52		

Source: US20110183978A1, “Phenylpyri(mi)dinylazoles” (Bayer CropScience AG, priority 2009, published 2011)
